The text below walks through data of PMC2931804 (Clinical cancer research : an official journal of the …, 2010).

“And” between values parts separate entries of the source, which are not always exact repeats. Equal values may be shown once. “Also recorded” adds a separate entry of the source.

Data set [1] relates to thymidylate synthase. As to the kind of experiment: Tumor thymidylate synthase expression by RT-PCR in liver metastasis biopsies. It counts as in vivo, human. The following applies: posttreatment biopsies at the MTD levels.
In data set [2] the test system is dihydropyrimidine dehydrogenase (DPD). As to the kind of experiment: DPD activity assay in peripheral blood mononuclear cells. The class given is in vivo, human.
The subject of data set [3] is thymidylate synthase. The following applies: in vitro and in vivo models, quantitative-PCR analysis; cited from earlier work.
A short description of data set [4]: FU plasma pharmacokinetics. It counts as in vivo, human. The following applies: at the MTD.
The conditions of data set [5]: 300 mg orally twice daily × 1 week with FOLFOX; cited from earlier work.
Data set [6] can be described thus: Vorinostat serum pharmacokinetics. The class given is in vivo, human.
[7] abbreviates: 600 mg orally twice daily, individual patients, cycle 2.
Where [8] appears, read: 1,700 mg orally once daily, individual patients, cycle 2.

One may read the Cmax as the peak of the concentration-time curve. As a reminder, the Tmax is the time at which the peak concentration occurs. Broadly, the half-life is the time needed for the level to fall by half in the phase considered.

On to `O=C(CCCCCCC(=O)Nc1ccccc1)NO` [vorinostat, suberoylanilide hydroxamic acid], for which the “Impact of vorinostat on intratumoral thymidylate synthase expression” value in the data set with thymidylate synthase [1] is on record as “No definitive impact; also recorded: no clear signs of thymidylate synthase downregulation”. Besides, the “Mean DPD level” value in data set [2] (once-daily MTD arm, four patients, day 2 of cycle 1, baseline 0.189) turned out to be 0.142 nmol/min/mg protein; in data set [2] (once-daily MTD arm, four patients, day 3 of cycle 1, baseline 0.189) it was 0.138 nmol/min/mg protein; in data set [2] (once-daily MTD arm, four patients, day 7 of cycle 1, baseline 0.189), 0.126 nmol/min/mg protein; in data set [2] (twice-daily MTD arm, three patients, day 2 of cycle 1, baseline 0.253), 0.199 nmol/min/mg protein; in data set [2] (twice-daily MTD arm, three patients, day 3 of cycle 1, baseline 0.253), 0.138 nmol/min/mg protein; in data set [2] (twice-daily MTD arm, three patients, day 7 of cycle 1, baseline 0.253), 0.198 nmol/min/mg protein. Further, the “Differences in DPD levels over time” value in data set [2] (within once-daily or twice-daily cohorts, one way ANOVA (P > 0.05)) was “not statistically significant”. In addition, the “Downregulation of thymidylate synthase expression” value with thymidylate synthase [3] is given as ≤ 100 fold. Further, in data set [4], the “Pharmacokinetic interactions between vorinostat and FU” value is on record as “No pharmacokinetic interactions”. Besides, the “maximum vorinostat serum concentrations” value in data set [5] was < 1.5 µmol/L. The “AUC0–8” value was 7.8 µM·h in data set [6] (setting [7]); 35.1 µM·h and 2.6 µM·h and 26 µM·h in data set [6] (setting [8]). Moreover, the Cmax in data set [6] (setting [7]) came to 4.99 µM; in data set [6] (600 mg orally twice daily, mean of 3 patients (SD 1.51)), 3.46 µM; in data set [6] (setting [8]), 6.4 µM; in data set [6] (1,700 mg orally once daily, mean of 3 patients (SD 3.09)) it was 4.49 µM. Further, the Tmax in data set [6] (setting [7]) was 2 h and 4 h; in data set [6] (setting [8]) it was 1 h. For the same compound, the half-life in data set [6] (human, oral, half-life, general statement in discussion) is ~2 h.
